These results are taken from patent publication US8969549B2, “Antioxidant small molecules aimed at targeting metal-based oxidative stress in neurogenerative disorders” (Texas Christian University, priority 2013, dated 2015).

One data set is described as follows: MTT cytotoxicity assay. The class given is cell-based. To be noted: mouse, HT-22 hippocampal neuronal cells, HT-22 cells. As for the experimental part:
As these compounds show potential for future in vivo studies, the 3-(4,5-dimethythiazol-2-yl)-2,5-diphenyl tetrazolium bromide (MTT) assay was performed in order to test compounds 2, 3 of Chart 4 for cytotoxicity with HT-22 cells, which is a hippocampal neuronal cell line extracted from mice. This is a colorimetric assay that measures the mitochondrial activity of living cells in which MTT crosses into the mitochondria where it is reduced to media insoluble formazan (dark purple), which is later solubilized in DMSO and measured spectroscopically (λmax=540 nm). Since the reduction of MTT can only occur in living cells with undamaged mitochondria, this is a good assay to measure cell proliferation and cytotoxicity.
For the biological assays mouse hippocampal HT-22 cell line was used, incubated them at 37° C. in a humidified atmosphere 5% CO2, with Dulbecco's Modified Eagle Medium (500 ml) containing penicillin/streptomycin 100× (5 ml), Glutamine (100 mM, 5 ml), charcoal strip fetal bovine serum. […]
(§1) (3-(4,5-dimethylthiazol-2-yl)-2,5-diphenyltetrazolium bromide) cells were seeded in a 96 well plate with a density of 5000 cells per well (in 100 μL per well). […] Media is discarded again and 100 μL of DMSO are added to each well, rocked for 5 minutes and the absorbance (A510) was measured using a Molecular Devices Kinetic Microplate Reader.
(Tetrazolium dyes change colour on reduction, which living cells bring about.)

The subject of a further data set is HT-22 cells. Nature of the data set: Aβ and Cu^+2 toxicity protection (MTT). The class given is cell-based, mouse. Conditions: compound 50 to 120 μM, Aβ 15 μM, copper 15 μM. As for the experimental part: In FIG. 16 one can observe that compound 2 (LC) is capable of protection from ranges of 50 to 120 μM reaching 37% of increase of cell proliferation with respect to the control (Aβ+Cu^+2). It is also shown that Aβ toxicity (15 μM) increases upon addition of copper (15 μM) opening the possibility of explaining the mechanism of action of LC (compound 2) which involves the possible chelation of copper out of the plaques, although the possibility of assessing ROS is always present. The experiment is completed with several controls including just compound 2, (Chart 4) and just copper, for comparison purposes.
The same analysis was performed for compound 3, (Chart 4), keeping the same ranges of concentrations for the compound (50 to 120 μM) as well as amyloid and copper. Restoring of cell proliferation was observed from 3 to 17%. […]
as §1

Data set [1] can be described thus: DPPH radical quenching assay. The class given is biochemical. Conditions: 1250 μM. The source says: (§2) Compound 2 (Chart 2) exists largely as the pyridol tautomer as confirmed by NMR. The reactivity of pyridol/pyridone based compounds such as chelidamic acid have shown reactivity with OH radicals in solution to form bis-pyridones and is a different mechanism than pyridine based compounds such as 1 (Chart 2). This reactivity is attributed to the enhanced antioxidant capacity observed. Chelidamic acid is the pyridone congener to the starting material used to produce 1. Therefore similar methodologies to produce 2 in gram scale quantities were employed.
As radicals are one product of miscompartmentalized metal ions, radical scavenging capability of compounds 1-3 (Chart 4) was tested using the DPPH assay. DPPH (2,2-diphenyl-1-picrylhydrazyl), is a dark purple (λmax=540 nm), stable free radical in solution that can be reduced to DPPHH in the presence of molecules with radical scavenging activity. This process results in a color change from dark purple to light yellow and can be followed spectroscopically by the decrease of the band at 540 nm. Applicants have, therefore, utilized this method to measure radical scavenging capability of their own organic molecules. BHT (butylhydroxytoluene) was used as a positive control due to its known antioxidant properties.
DPPH stock solution was prepared by dissolving 25 mg in 100 mL of absolute EtOH. The working radical solution was prepared by dilution with absolute EtOH to an absorbance of 1.3 at 512 nm. Stock solutions of the compounds tested were dissolved in DI H2O and EtOH 95% respectively and serial dilutions were made to get different concentrations. For the analysis 2 mL of the solutions were incubated with 2 mL of DPPH working solutions in the dark for 24 h. as well as 2 mL of DPPH working solution with 2 mL of H2O or EtOH to serve as blank. Analysis of the solutions was performed as follows: 1 mL of the sample solution was diluted with 1 mL of H2O shaken and the absorbance was measured at 515 nm.
In general terms: DPPH is a stable violet radical that fades when it is reduced.

The conditions of data set [2]: LA/DHLA; cited from earlier work.
The conditions of data set [3]: cited from earlier work.
Data set [4] can be described thus: ABTS radical assay standardized against Trolox. It is filed as biochemical. Conditions: ligand concentration 100 μM.
Data set [5] deals with FRDA cells. Nature of the data set: Calcein AM viability assay with BSO. The class given is cell-based, human. Conditions: Homo sapiens, 48 hour BSO 1 mM, compound 1 nM final, read-out: cell viability compared to untreated control cells. As for the experimental part: FIG. 5 is a graph showing a Calcien AM viability assay of FRDA cells after 48 hour exposure to BSO [1 mM] with 1-4 [1 nM final].
FIG. 10 is a graph showing Calcein AM viability assay of FRDA cells after 48 hour exposure to BSO [1 mM] followed by addition of 2 [various concentrations].
FRDA cells have higher levels of ROS due to mitochondrial misfunction associated with frataxin expression and therefore serve as a good model for ROS protection. […] Calcein AM, a non-fluorescent, hydrophobic compound that easily permeates intact, live cells, was used as an indicator for cell viability.
This dose response is visualized in the fluorescent cell images shown in FIG. 11 with increased cell survival corresponding to increasing 2 in the nM range.

Data set [6] has as its system Aβ1-40. Nature of the data set: Tyr^10 fluorescence of Aβ1-40. It is filed as biochemical. The source says: FIG. 2 is a graph showing the addition of ligands 1-4 to aggregated Aβ results in reconstitution of Tyr^10 fluorescence which was decreased due to aggregate formation.
To further determine the capability of 1 to prevent or disrupt metal-ion induced amyloid aggregation, Applicant's studied Tyr fluorescence intensity. Recent reports have also utilized the natural fluorescence of the native Tyr^10 in the Aβ1-40 sequence to study the conformational dynamics of amyloid folding as it relates to AD and/or production of H2O2. As Tyr^10 is located within proximity to the metal binding pocket in Aβ1-40 the fluorescence intensity of the phenolic side chain decreases during the folding process due to environmental changes that occur locally. This work was supported by circular dichroism spectra, which verified that fluorescence intensity decreased as the conformation of amyloid changed to beta-sheets. […] Applicant's hypothesis was that Tyr fluorescence intensity should be restored to control levels upon addition of compounds 1-4 (Chart 1) to a solution of pre-formed metal aggregates, as shown below in FIG. 2. […] Similar results were also obtained for amyloid samples co-incubated with 1-4 prior to metal ion addition.
The macrocyclic compound 2 (Chart 2) is also a chelator capable of preventing metal-induced amyloid formation as well as disaggregation. Metal ions bind to a histidine rich domain in amyloid producing Aβ in the form of insoluble plaques. This process has been extensively studied and described in a number of recent reviews. […] Moreover, amyloid aggregates formed by metal ion co-incubation can be disaggregated by the addition of compounds 1 or 2 (FIG. 12b).

A short description of data set [7]: log K constants with Zn^II. The class given is binding. The source says: (§3) The ligand is the backbone to PCTA, a potential MRI contrast agent explored in recent years and has been repurposed for Applicant's work.
Data set [8] has as its system Aβ1-40. The experiment in a line: Turbidity assay of metal-induced amyloid aggregation. The class given is biochemical. Conditions: for disaggregation of pre-formed metal-induced Aβ1-40 aggregates (turbidity): copper(II) or zinc(II) aggregates, ligand added afterwards. The source says:
Metal ions (copper and zinc) bind to a histidine rich domain in amyloid producing Aβ in the form of insoluble plaques. This process has been comprehensively studied and described in a number of recent reviews. The aggregation of amyloid can be followed by simple spectroscopic techniques such as turbidity and tyrosine fluorescence studies. These methods were used to investigate the ability of 1 to dissociate pre-formed amyloid aggregates upon addition of metal ions, as well as prevent amyloid aggregation.
Metal ions bind to a histidine rich domain in amyloid producing Aβ in the form of insoluble plaques. This process has been extensively studied and described in a number of recent reviews.

Data set [9] deals with FRDA cells. The experiment in a line: DCFH-DA ROS assay with BSO. It is filed as cell-based, human. Conditions: 12 hours BSO 1 mM, compound 4 nM. As for the experimental part: FIG. 6 is a graph showing DCFH-DA fluorescent response in FRDA cells after 12 hours exposure to BSO [1 mM] with 1-4 [4 nM].
FIG. 7 is a graph of DCFH-DA fluorescent response in FRDA cells after 12 hours exposure to BSO [1 mM] showing dose dependence with 1.
FIG. 9 is a graph of DCFH-DA fluorescent response in FRDA cells after 12 hours exposure to BSO [1 mM] showing dose dependence with 1 and 2.
The antioxidant activity of compound 1 compared to compounds 2-3 (Chart 1) was then studied using the cell-permeable fluorophore 2,7′-Dichlorodihydrofluorescin diacetate (DCFH-DA) as an indicator for ROS. DCFH-DA diffuses into cells and is deacetylated by cellular esterases to non-fluorescent 2′,7′-Dichlorodihydrofluorescin (DCFH). This species is subsequently oxidized to the highly fluorescent 2′,7′-Dichlorodihydrofluorescein (DCF) species in the presence of ROS. The fluorescent intensity is directly proportional to the amount of ROS present in cell cytosol. BSO (2-amino-4-(butylsulfonimidoyl)butanoic acid) was used to inhibit the first step of de novo glutathione synthesis, allowing us to observe the elevated intra-cellular [ROS] are thereby observed.
Cellular studies were carried out to evaluate the intra-cellular antioxidant efficacy and toxicity of compound 2 (Chart 2) compared to 1 using the cell-permeable fluorophore 2,7′-dichlorodihydrofluorescin diacetate (DCFH-DA) as an indicator for ROS. DCFH-DA diffuses into cells and is deacetylated by cellular esterases to non-fluorescent 2′,7′-dichlorodihydrofluorescin (DCFH) which is subsequently oxidized to the highly fluorescent 2′,7′-dichlorodihydrofluorescein (DCF) species in the presence of ROS. The fluorescence intensity is directly proportional to the amount of ROS present in cell cytosol.^11 BSO (2-amino-4-(butylsulfonimidoyl)butanoic acid) is a commonly used model for oxidative stress via inhibition of cytosolic glutathione synthesis resulting in elevated intra-cellular [ROS] and an increased fluorescent signal in the presence of DCFH (FIG. 9).

A short description of data set [10]: log K constants with Cu^II. It is filed as binding.
Excerpt: as §3

A short description of data set [11]: Cu-ascorbate redox system with coumarin-3-carboxylic acid (CCA). The class given is biochemical. The text has this:
As increased levels of ROS are associated with AD, Applicant's set out to investigate the antioxidant character of 1 compared to the heterocycles 2 and/or 3. […] Moreover, many of the pathways proposed to produce ROS leading to AD pathology involve metal ions. Applicant's therefore utilized the Cu-ascorbate redox system, Scheme 1, as a model to determine if the ligands could halt copper based redox activity under aerobic conditions:
Faller and co-workers employed this system to investigate the redox chemistry of amyloid systems with Cu. Coumarin-3-carboxylic acid (CCA), which generates fluorescent 7-hydroxy-CCA in the presence of hydroxyl radicals, was used to quantify the reduction of oxygen by copper redox-cycling in the presence of ascorbate.

The test system of a further data set is two separate cell lines. The experiment in a line: Preliminary cell-viability screen. It is filed as cell-based.
Excerpt: as §2

The next data set deals with amyloid aggregates. The experiment in a line: TEM imaging of copper-induced amyloid aggregates. The class given is biochemical. To be noted: incubated 12 hours. As for the experimental part:
FIG. 3 is an illustration of TEM Images showing (a) copper induced aggregation of amyloid and (b) its dissolution by 1.
Transmission electron microscopy (TEM) and Scanning Electron Microscopy (SEM) were utilized to study the morphology of the aggregates with and without chelators, as well. […] Aliquots from the stock used to make grid (a) were then incubated with 1 for 12 hours and then prepared for microscopy. The sizes of the aggregates upon treatment with 1 are an average of 1-2 orders of magnitude smaller and observably more diffuse, as shown in grid (b). SEM images also confirm the ability of the chelates to affect aggregate size as well.

A value given as a limit tells only on which side of the number the result lay.

A word on the EC50: it is the concentration that produces a half-maximal response. For the molecule `O=C(CCCCC1CCSS1)N1CCNCCNCCNCC1` (racemic) [Compound 2 (Chart 4), (±)-5-(1,2-dithiolan-3-yl)-1-(1,4,7,10-tetraazacyclododecan-1-yl)pentan-1-one], the EC50 at 48 h in the data set “MTT cytotoxicity assay” was 312 µM. In addition, the “increase of cell proliferation with respect to the control (Aβ+Cu^+2)” value with HT-22 cells came to 37%. Besides, in data set [1], the “quenching of the DPPH radical” value was “equivalent amount of radical”.

As usually defined, the pKa is the negative logarithm of the acid dissociation constant. Regarding `O=C(O)CCCC[C@@H](S)CCS` (racemic) [DHLA, dihydrolipoic acid], in [2], the redox potential was −320 mV. For the same molecule, in data set [3], the pKa is listed as 4.7.

A word on the viability: it is a per cent measure of how many cells are alive, often set against a control. Regarding `c1cc2nc(c1)CNCCNCCNC2` [1 (Chart 1), pyclen], the “Trolox equivalents (ABTS radical)” value in data set [4] is recorded as 0.4 Trolox equivalents. For the same molecule, the viability at 0.001 µM in the data set with FRDA cells [5] was more than 85%. The “reconstitution of Tyr^10 fluorescence of aggregated Aβ1-40” value with Aβ1-40 [6] (ligand added to pre-formed metal aggregates) is listed as “equally effective”. Moreover, the “prevention of loss of Tyr^10 fluorescence of Aβ1-40” value with Aβ1-40 [6] (ligand co-incubated prior to metal ion addition, 24 hours) was “equally effective”. Also, the “log K constants Zn^II” value in data set [7] is recorded as 14. Moreover, the “disaggregation of pre-formed metal-induced Aβ1-40 aggregates (turbidity)” value is given as “reversed” in the data set with Aβ1-40 [8] and “disaggregated” in the data set with Aβ1-40 [8] (listed as 1 (Chart 2)). The “prevention of metal-induced Aβ1-40 aggregation (turbidity)” value in the data set with Aβ1-40 [8] (ligand co-incubated with amyloid before copper(II) or zinc(II) addition) is listed as “prevents formation of aggregations”. In the data set with FRDA cells [9], the “increase of ROS over the negative control (media)” value is recorded as 15%. The “log K constants Cu^II” value in [10] amounted to 20. Further, the “OH. generation measured as 7-hydroxy-CCA fluorescence, ligand co-incubated” value in data set [11] (CCA 100 uM, ascorbate 300 uM, Cu^II 40 uM) is given as “prevented entirely”. In addition, in data set [11] (added after two minutes co-incubation with CCA), the “7-hydroxy-CCA signal after addition to running Cu-ascorbate system” value is reported as “leveling of the 7-hydroxy-CCA signal”. Besides, the “tolerance in cell-viability screen” value with two separate cell lines was “large degree of tolerance”. For the same molecule, the “decrease of amyloid aggregate size compared to the copper aggregates (TEM)” value in the data set on amyloid aggregates is given as 1-2 orders of magnitude.
